Patent US9073880B2, “2-(2-phenylethenyl) 1,3-benzodiazepine derivatives useful for the treatment of cancer” (Yissum Research Development Company of the Hebrew …, priority 2010, dated 2015)

What was measured:
Assay type in all cases: cell-based
[1] = test system: human melanoma YUMAC cells; assay: Cell proliferation, YUMAC (Example 4); details: compound in 2-hydroxypropyl-β-cyclodextrin
Procedure: (§1) Human ovary cancer A2780 cells lines were seeded at a density of 5000 cells/well, human melanoma A375 cells were plated at a density of 2,500 cells/well, human colon carcinoma HCT15 cells were plated at a density of 3,000 cells/well, human prostate carcinoma PC3 cells were plated at a density of 1,500 cells/well, human breast carcinoma MCF7 cells were plated at a density of 5,000 cells/well, human breast carcinoma MDA MB 468 cells were plated at a density of 6,000 cells/well, human myeloma U266, RPMI8226 and CAG cells were plated at a density of 10,000 cells/well. All cells were plated in 96-well plates in 90 μl growth medium containing 10% FCS, 100 units/ml penicillin and 100 μg/ml streptomycin. Compound 3 was added a day later in […] of 1% DMSO in DDW to obtain final concentrations of 0, 0.1, 0.3, 1, 3, and 10 μM. The final concentration of DMSO (0.1% DMSO) was kept constant in all samples. Following exposure of the cells to compound 3 for 72 hours at 37° C., adhered cells were fixed in 0.5% gluteraldehyde in medium for 10 min, washed three times with DDW, once with 0.1M sodium borate buffer pH 8.5 and stained with 1% methylene blue dissolved in 0.1M borate buffer solution for 60 min. Excess dye was washed out and cell-bound dye was eluted with 200 μl/well of 0.1M HCl. The optical density values were read at 630 nm in ELISA plate reader. Non-adhered cells were exposed to WST-1 reagent for 5 hours following 72 hours treatment with the inhibitors, and optical density values were read at 630 nm in ELISA plate reader. The data was analyzed in Microsoft Excel, using the vehicle control as 100% proliferation. The assays were performed in triplicates. The values of IC50 were derived from the dose-dependent growth curves obtained.
(§2) Cell proliferation assay was performed as described in Example 2. The following cell line were plated in 96-well plates in 90 μl growth medium containing 10% FCS, 100 units/ml penicillin and 100 μg/ml streptomycin: human ovary cancer A2780 cells (4500 cells/well), human melanoma A375 (1500 cells/well) and YUMAC (2500 cells/well) cells, human colon carcinoma HCT15 (3000 cells/well) and HCT116 (2000 cells/well) cells, human prostate carcinoma PC3 (3000 cells/well), PC3MM2 (3500 cells/well) and DU145 (300 cells/well) cells, human hepatocarcinoma HepG2 (3000 cells/well), human Ewing sarcoma SK-ES-1 (4,500 cells/well), human glioblastoma U138MG (2,000 cells/well), human breast cancer T47D (4000 cells/well) and MDA-MB-468 (6000 cells/well) cells, human small cell lung carcinoma NCI-H1975 (5000 cells/well) cells, human osteosarcoma Saos-2 (5000 cells/well) cells, human pancreatic cancer ASPC (2500 cells/well) cells, human bladder carcinoma T24P (1000 cells/well) cells, human gastric cancer NCI-N87 (5000 cells/well) cells, human lymphoma KARPAS (5,000 cells/well) cells, human leukemia K562 (5,000 cells/well) cells and human multiple myeloma MM1S (10,000 cells/well), U266 (10,000 cells/well) and CAG (5,000 cells/well). Compounds 2-5 and 7-8 were added a day later in 10 μl of 0.7% 2-hydroxypropyl-β-cyclodextrin to obtain final concentrations of 0, 0.1, 0.3, 1, 3 and 10 μM.
(§3) Compounds 2-5 and 7-8 of the present invention were tested for their inhibitory potential in cell proliferation assay. […]

[2] = test system: human colon carcinoma HCT116 cells; assay: Cell proliferation, HCT116 (Example 4); details: HCT-116, HCT116, colon cancer, compound in 2-hydroxypropyl-β-cyclodextrin
Procedure: as §1, §2, §3

[3] = test system: human Ewing sarcoma SK-ES-1 cells; assay: Cell proliferation, SK-ES-1 (Example 4); details: SK-ES1, SK-ES-1, Ewing sarcoma, compound in 2-hydroxypropyl-β-cyclodextrin
Procedure: as §1
(§4) Cell proliferation assay was performed as described in Example 2. […]

[4] = test system: human breast cancer MDA-MB-468 cells; assay: Cell proliferation, MDA-MB-468 (Example 4); details: MDA-MB-468, breast cancer, compound in 2-hydroxypropyl-β-cyclodextrin
Procedure: as §1, §4

[5] = test system: human gastric cancer NCI-N87 cells; assay: Cell proliferation, NCI-N87 (Example 4); details: compound in 2-hydroxypropyl-β-cyclodextrin
Procedure: as §1, §4

[6] = test system: human multiple myeloma MM1S cells; assay: Cell proliferation, MM1S (Example 4); details: MM1.S, compound in 2-hydroxypropyl-β-cyclodextrin
Procedure: as §1, §2
Compounds 2-5 and 7-8 of the present invention were tested for their inhibitory potential in cell proliferation assay. Human ovary cancer A2780 cells, human melanoma A375 and YUMAC cells, human colon carcinoma HCT15 and HCT116 cells, human prostate carcinoma PC3, PC3MM2 and DU145 cells, human hepatocarcinoma HepG2 cells, human Ewing sarcoma SK-ES-1 cells, human glioblastoma U138MG cells, human breast cancer T47D and MDA-MB-468 cells, human small cell lung carcinoma NCI-H1975 cells, human osteosarcoma Saos-2 cells, human pancreatic cancer ASPC cells, human bladder cancer T24P cells, human gastric cancer cells, human lymphoma KARPAS cells, human leukemia K562 cells, and human multiple myeloma MM1S, CAG and U266 cells, were exposed to increasing concentrations of compounds 2-5 and 7-8. […]

Structure (SMILES) | IC50 [1] | IC50 [2] | IC50 [3] | IC50 [4] | IC50 [5] | IC50 [6]
O=c1c(O)cc2cnc(/C=C/c3cc(O)c(O)c(Br)c3)sc-2c1O [Compound 3] | 300 nM | 500 nM | 300 nM | 4700 nM | 4500 nM | 500 nM
O=c1c(O)cc2cnc(/C=C/c3ccc(O)c(O)c3Br)sc-2c1O [Compound 5] | 200 nM | 400 nM | 600 nM | 2900 nM | 4000 nM | 600 nM
